The assay addresses human serum albumin (HSA) (Homo sapiens, UniProt P02768). Kind of assay: 1D 1H NMR line broadening with HSA. Format: binding.

human serum albumin (HSA), sequence (P02768 25-609): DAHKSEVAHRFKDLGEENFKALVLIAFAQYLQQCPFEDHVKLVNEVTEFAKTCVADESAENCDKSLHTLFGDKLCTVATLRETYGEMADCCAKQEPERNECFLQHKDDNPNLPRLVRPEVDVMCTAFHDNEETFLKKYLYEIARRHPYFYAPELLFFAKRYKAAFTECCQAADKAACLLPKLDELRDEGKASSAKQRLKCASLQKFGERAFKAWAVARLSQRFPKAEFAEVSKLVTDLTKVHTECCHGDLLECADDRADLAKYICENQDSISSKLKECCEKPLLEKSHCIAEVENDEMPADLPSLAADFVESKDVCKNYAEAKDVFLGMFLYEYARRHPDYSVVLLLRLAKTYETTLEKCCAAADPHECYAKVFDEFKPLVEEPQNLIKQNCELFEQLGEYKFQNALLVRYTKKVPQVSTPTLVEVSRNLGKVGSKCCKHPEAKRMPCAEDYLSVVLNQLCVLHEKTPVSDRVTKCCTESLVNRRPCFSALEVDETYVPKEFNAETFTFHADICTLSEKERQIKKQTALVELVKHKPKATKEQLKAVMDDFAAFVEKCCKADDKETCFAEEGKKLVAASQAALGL

`Cc1cc(=O)oc2cc(O)ccc12` [7-hydroxy-4-methyl coumarin]: the “1D 1H NMR line broadening with HSA; competition with warfarin” value was “The NMR resonances of the coumarin-analogue broaden (Fig (6a, b)) from the addition of HSA”.
